Laboratory results from ChEMBL document CHEMBL1155922, “Epiboxidine and novel-related analogues: a convenient synthetic approach and estimation of their affinity at neuronal nicotinic acetylcholine receptor subtypes” (Bioorg Med Chem Lett, 2008).

Experiments:
[1] = biological target: Neuronal acetylcholine receptor subunit alpha-7 (Rattus norvegicus, UniProt Q05941); experiment: Displacement of [125I]alpha-bungarotoxin from alpha7 nAChR in rat cortical membrane; assay type: cell membranes
[2] = biological target: T1, Neuronal acetylcholine receptor; alpha4/beta2 (Rattus norvegicus, UniProt P09483+P12390); experiment: Displacement of [3H]epibatidine from alpha4beta2 nAChR in rat cortical membrane; assay type: cell membranes
T1 sequence (P09483 whole entry): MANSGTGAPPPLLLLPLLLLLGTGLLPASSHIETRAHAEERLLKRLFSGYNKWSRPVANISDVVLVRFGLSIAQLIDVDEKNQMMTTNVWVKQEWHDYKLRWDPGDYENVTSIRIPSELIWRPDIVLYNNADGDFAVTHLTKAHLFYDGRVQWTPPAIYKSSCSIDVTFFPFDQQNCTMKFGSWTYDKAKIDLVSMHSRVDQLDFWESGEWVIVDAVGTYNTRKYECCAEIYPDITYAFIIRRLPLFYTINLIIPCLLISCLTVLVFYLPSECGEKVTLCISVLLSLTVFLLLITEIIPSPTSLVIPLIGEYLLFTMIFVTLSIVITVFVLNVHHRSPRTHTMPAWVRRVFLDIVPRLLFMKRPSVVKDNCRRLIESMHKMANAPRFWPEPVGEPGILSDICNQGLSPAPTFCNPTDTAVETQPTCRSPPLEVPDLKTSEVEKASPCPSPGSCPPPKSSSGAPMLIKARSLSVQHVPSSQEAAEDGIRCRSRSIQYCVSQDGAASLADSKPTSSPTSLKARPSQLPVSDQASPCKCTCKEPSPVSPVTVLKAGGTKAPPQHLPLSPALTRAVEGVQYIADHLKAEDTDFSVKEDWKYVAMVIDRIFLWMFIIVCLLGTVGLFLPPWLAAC
T1 sequence (P12390 whole entry): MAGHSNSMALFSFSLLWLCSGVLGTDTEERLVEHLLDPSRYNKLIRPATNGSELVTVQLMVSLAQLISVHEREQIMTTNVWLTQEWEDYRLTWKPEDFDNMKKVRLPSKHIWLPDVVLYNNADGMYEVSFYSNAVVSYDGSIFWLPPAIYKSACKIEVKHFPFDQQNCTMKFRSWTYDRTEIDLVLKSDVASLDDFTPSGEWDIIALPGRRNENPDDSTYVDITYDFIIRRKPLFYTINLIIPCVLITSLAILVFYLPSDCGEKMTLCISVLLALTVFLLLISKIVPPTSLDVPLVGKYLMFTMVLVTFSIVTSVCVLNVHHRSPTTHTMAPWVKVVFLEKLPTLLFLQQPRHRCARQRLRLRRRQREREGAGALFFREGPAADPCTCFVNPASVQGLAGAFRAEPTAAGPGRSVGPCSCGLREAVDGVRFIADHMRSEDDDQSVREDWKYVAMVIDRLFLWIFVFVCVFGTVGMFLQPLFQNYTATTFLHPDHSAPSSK

[3] = organism: Rattus norvegicus; experiment: Selectivity ratio of Ki for rat alpha4beta2 nAChR to Ki for rat alpha7 nAChR
[4] = biological target: T2, Neuronal acetylcholine receptor; alpha4/beta2 (Homo sapiens, UniProt P17787+P43681); experiment: Binding affinity to alpha4beta2 nAChR; assay type: protein-complex assay
T2 sequence (P17787 whole entry): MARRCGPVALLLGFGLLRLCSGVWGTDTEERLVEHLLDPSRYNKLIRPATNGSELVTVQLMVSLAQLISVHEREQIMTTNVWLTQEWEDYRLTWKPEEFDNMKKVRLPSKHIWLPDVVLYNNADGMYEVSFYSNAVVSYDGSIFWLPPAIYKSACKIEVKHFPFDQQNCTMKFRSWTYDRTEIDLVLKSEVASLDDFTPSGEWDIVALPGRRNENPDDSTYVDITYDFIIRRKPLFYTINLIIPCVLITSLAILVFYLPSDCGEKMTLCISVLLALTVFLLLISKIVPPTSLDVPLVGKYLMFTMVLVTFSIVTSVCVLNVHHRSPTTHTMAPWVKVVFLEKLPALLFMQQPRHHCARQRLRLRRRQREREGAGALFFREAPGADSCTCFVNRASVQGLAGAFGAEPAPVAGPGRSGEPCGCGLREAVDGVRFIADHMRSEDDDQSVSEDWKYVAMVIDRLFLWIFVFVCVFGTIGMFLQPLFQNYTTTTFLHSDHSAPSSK
T2 sequence (P43681 whole entry): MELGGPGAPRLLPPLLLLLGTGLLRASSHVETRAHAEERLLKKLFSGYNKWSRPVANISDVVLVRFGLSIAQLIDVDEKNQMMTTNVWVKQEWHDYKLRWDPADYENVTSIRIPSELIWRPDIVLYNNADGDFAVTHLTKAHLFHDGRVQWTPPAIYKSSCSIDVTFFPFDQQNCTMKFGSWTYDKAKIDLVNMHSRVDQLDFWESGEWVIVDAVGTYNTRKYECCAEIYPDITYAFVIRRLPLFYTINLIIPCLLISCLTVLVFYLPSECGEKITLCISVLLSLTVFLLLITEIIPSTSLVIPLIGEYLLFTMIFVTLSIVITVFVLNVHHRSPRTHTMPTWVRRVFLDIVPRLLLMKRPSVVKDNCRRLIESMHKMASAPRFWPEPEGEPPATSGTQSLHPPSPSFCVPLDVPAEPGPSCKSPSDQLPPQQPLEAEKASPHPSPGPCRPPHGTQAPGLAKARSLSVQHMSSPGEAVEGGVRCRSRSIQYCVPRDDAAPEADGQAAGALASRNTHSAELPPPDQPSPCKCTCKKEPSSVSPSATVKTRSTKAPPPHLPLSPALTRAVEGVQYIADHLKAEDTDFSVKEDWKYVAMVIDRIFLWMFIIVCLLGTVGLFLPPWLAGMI

[5] = biological target: T1, Neuronal acetylcholine receptor; alpha4/beta2; experiment: Displacement of [3H]nicotine from alpha4beta2 nAChR in rat cerebral membrane; assay type: cell membranes
[6] = biological target: T2, Neuronal acetylcholine receptor; alpha4/beta2; experiment: Displacement of [3H]cystisine from alpha4beta2 nAChR; assay type: protein-complex assay

Chain of Neuronal acetylcholine receptor subunit alpha-7 (Q05941 whole entry): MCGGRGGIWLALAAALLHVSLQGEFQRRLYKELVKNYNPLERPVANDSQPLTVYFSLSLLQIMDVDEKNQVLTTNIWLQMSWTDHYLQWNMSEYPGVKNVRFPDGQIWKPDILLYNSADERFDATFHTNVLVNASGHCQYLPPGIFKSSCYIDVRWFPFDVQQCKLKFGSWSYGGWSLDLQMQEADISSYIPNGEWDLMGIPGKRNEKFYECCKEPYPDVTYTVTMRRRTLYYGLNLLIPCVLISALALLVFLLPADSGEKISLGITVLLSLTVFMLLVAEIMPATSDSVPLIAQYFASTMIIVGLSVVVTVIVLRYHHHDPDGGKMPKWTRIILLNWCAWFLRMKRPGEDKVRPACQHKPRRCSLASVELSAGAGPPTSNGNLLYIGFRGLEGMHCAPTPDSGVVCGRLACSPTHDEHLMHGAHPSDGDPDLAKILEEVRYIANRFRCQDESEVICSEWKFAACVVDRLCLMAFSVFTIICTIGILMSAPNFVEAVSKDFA

Cc1cc(C2=CC3CCC2N3C)on1 (racemic)
Ki [1]: 394 nM
Ki [2]: 514 nM

Cc1cc(C2=CC3CCC2N3)on1 (racemic)
Ki [1]: 1600 nM
Ratio Ki [3]: 32
Ki [2]: 50 nM

Cc1cc([C@@H]2C[C@H]3CC[C@H]2N3)on1 (racemic) [ENDO-EPIBOXIDINE]
Ki [1]: 230 nM
Ki [2]: 70 nM

Cc1cc([C@H]2C[C@H]3CC[C@H]2N3)on1 (racemic) [EXO-EPIBOXIDINE]
Ki [1]: 6 nM
Ki [4]: 0.46 nM
Ki [5]: 0.6 nM
Ratio Ki [3]: 15
Ki [6]: 1.33 nM
Ki [2]: 0.4 nM
